Experimental data published in patent US11213516B2, “Intravaginally applicable devices comprising antiviral compounds” (AICURIS ANTI-INFECTIVE CURES GMBH, priority 2017, dated 2022).

Experiment: In vitro release from matrix-type silicone elastomer vaginal rings
Type: physicochemical
Settings: isopropanol/H2O, 37° C.
Experimental: HPLC analysis was conducted using an Agilent 1200 Series HPLC system, consisting of a quaternary HPLC pump, an auto sampler, an in-line Degasser AF Unit, a dual λ absorbance detector, and a column heater. A BDS Hypersil C18 (Thermo Scientific) column (length 150 mm, id 4.6 mm, particle size 3 μm) was used. The mobile phase comprised 45% of 1% w/v glacial acetic acid and 55% methanol pumped isocratically at a flow rate of 1 mL/min. The sample injection volume was 25 μL, the column temperature was 25° C., and detection was performed at 280 nm. Run time for the method was 5 min
Human-sized (56 mm or ×7.6 mm id), matrix-type, silicone elastomer vaginal rings containing either 25 mg or 400 mg of Pritelivir were manufactured by reaction injection molding of drug+silicone mixes. For the 25 mg rings, 272 mg Pritelivir free base or Pritelivir mesylate salt was weighed into a polypropylene Speedmixer container along with DDU-4320 silicone elastomer Part A (40 g) and Part B (40 g). After mixing (Speedmixer DAK 150 FVZ-K; 3000 rpm for 30 sec), the mixture was transferred to a 60 mL disposable plastic syringe and injected into pre-heated (90° C.) custom, two-cavity ring molds fitted to a laboratory-scale injection molding machine. After 3 minutes, the cured rings were removed from the molds. For the 400 mg rings, 4325 mg of Pritelivir free base or Pritelivir mesylate salt was weighed. Four samples of each ring type were manufactured.
Pritelivir rings were individually placed into stoppered glass flasks containing 100 mL isopropanol/H2O. The flasks were placed in a shaking orbital shaker (37° C., 60 rpm). The release medium was sampled (˜5 mL) every 24 h over a fourteen day period, with complete replacement of the 100 mL release medium at each sampling point to maintain sink conditions. Quantification of Pritelivir free base or Pritelivir mesylate salt concentrations in the samples was performed using the HPLC-UV method.

Cc1nc(N(C)C(=O)Cc2ccc(-c3ccccn3)cc2)sc1S(N)(=O)=O [Pritelivir free base]
Cumulative Day 14 release (25 mg matrix-type ring): 604.13 µg | Mean Day 1 release (25 mg matrix-type ring): 122.17 µg | Mean Day 14 release (25 mg matrix-type ring): 24.77 µg | Release rate (25 mg matrix-type ring): 177.0 µg/day | Cumulative Day 14 release (400 mg matrix-type ring): 2,495.52 μg | Mean Day 1 release (400 mg matrix-type ring): 443.45 µg | Mean Day 14 release (400 mg matrix-type ring): 102.16 µg | Release rate (400 mg matrix-type ring): 752.5 µg/day
